Reference: US8367735B2, “Pharmaceutical compositions” (Crawford Healthcare Holdings Limited, priority 2006, dated 2013)

Assays:
[1] = test system: Human keratinocytes (HaCaT); test: HaCaT cell proliferation assay (viable cell count); assay type: cell-based; settings: 48 hours after treatment
Method: (§1) Cell Lines and Treatments. Human keratinocytes (HaCaT) were grown routinely in DMEM supplemented with 10% FBS and 2 mM L-glutamine at 37° C. in a 5% CO2 humidified atmosphere. Human umbilical vein endothelial cells (HUVEC), obtained from Clonetics (San Diego, Calif., USA), were cultured in EGM medium (Clonetics, San Diego, Calif., USA) supplemented with 2% FBS, […], […] hydrocortisone, […] gentamicin, 3 mg/ml BBE (bovine brain extract) at 37° C. in a 5% CO2 humidified atmosphere.
Compounds. CTM-208 was dissolved in absolute ethanol or DMSO (0.1 M stock solution), stored at −20° C., and diluted in the culture medium immediately before use. Control cells received the same amount of DMSO diluent that had no effect on cell proliferation at the concentrations tested. Methotrexate was dissolved in DMSO. […]
Cell Proliferation Assay. […] At 48 hours after the addition of the compounds, cell proliferation was determined by counting the number of viable cells in a hemocytometer. Cell viability was determined by the Trypan blue vital dye exclusion technique. IC50 values on the increase in the number of cells over the number of seeded cells were calculated at 48 hours after treatment.
Effect of CTM-208 on human keratinocyte proliferation. […] At 48 hours after the addition of the compounds, cell proliferation was determined by counting the number of viable cells in a hemocytometer. […]

HSF [2] = test: EMSA of HSF induction in human keratinocytes; assay type: cell-based
human keratinocytes = test: LD50 in human keratinocytes; assay type: cell-based
Method: Cell Proliferation Assay. HaCaT cells (2.5×10^4 cells/well) were seeded in 24-well plates. After 24 hours, the medium was removed and the test compounds were added at different concentrations. At 48 hours after the addition of the compounds, cell proliferation was determined by counting the number of viable cells in a hemocytometer. Cell viability was determined by the Trypan blue vital dye exclusion technique. IC50 values on the increase in the number of cells over the number of seeded cells were calculated at 48 hours after treatment.

HSF1 = settings: cited from earlier work
NF-κB [3] = settings: chemical or physiological inducers; cited from earlier work
[4] = test system: human Burkitt lymphoma HS-Sultan cells; test: Annexin V staining apoptosis, HS-Sultan cells; assay type: cell-based
Method: (§2) Cell Culture and Treatments. Human breast cancer MDA-MB-231, human melanoma SK-MEL-28, and human Burkitt lymphoma HS-Sultan cell lines, obtained from ATCC (Manassas, Va.), were grown at 37° C. in 5% CO2 and 95% humidified air in cell culture medium containing 10% fetal calf serum, 2 mM glutamine and antibiotics ([…] penicillin and 0.1 mg/ml streptomycin) (Life Technologies, Inc.). Each compound to be assayed was dissolved in absolute ethanol and diluted in the culture medium immediately before use. Control cells received the same amount of ethanol diluent. Cells were incubated with the assay compound or control diluent for 8 hours, unless indicated otherwise. Cell viability was determined by vital-dye exclusion assay (Trypan blue, 0.1%).
(§3) Flow Cytometry. For Annexin V staining, cells were washed once with PBS and resuspended in staining buffer (10 mM HEPES pH 7.4, 140 mM NaCl, 2.5 mM CaCl) with […] of AnnexinV-PI (AnnexinV-FITC, Becton-Dickinson). After 15 minutes of incubation in the dark, cells were directly analyzed in a FACScan (Becton-Dickinson). Cells were evaluated with CellQuest Program (Becton-Dickinson). Data were plotted using a histogram algorithm, in which the intensities of Annexin V-positive cells were represented as percent of untreated control. Exemplary data obtained from human Burkitt lymphoma HS-Sultan cells and human melanoma SK-MEL-28 cells (24 hour incubation for SK-MEL-28 cells) are provided in FIGS. 1 and 2, respectively.
Electrophoretic Mobility Shift Assay (EMSA). […] Complexes were analyzed by nondenaturing 4% polyacrylamide gel electrophoresis. […] Quantitative evaluation of NF-κB-κB complex formation was determined by Typhoon-8600 Imager (Molecular Dynamics), using ImageQuant software (MDP analysis). […]

[5] = test system: human melanoma SK-MEL-28 cells; test: Annexin V staining apoptosis, SK-MEL-28 cells; assay type: cell-based; settings: 24 hour incubation, in comparison to Cisplatin, Etoposide and Vinblastine, FIG. 2
Method: as §2
as §3, with “Exemplary data obtained from human Burkitt lymphoma HS-Sultan cells and human melanoma SK-MEL-28 cells (24 hour incubation for SK-MEL-28 cells) are provided in FIGS. 1 and 2, respectively.” left out

[6] = test system: human breast cancer MDA-MB-231 cells; test: DNA fragmentation (Cell-Death-Detection ELISA), MDA-MB-231 cells; assay type: cell-based; settings: 5 μM, 48 hour incubation, FIG. 3
Method: as §2
DNA Fragmentation. Cytoplasmic histone-bound DNA fragments (mono- and oligo-nucleosomes) generated during apoptosis were measured by Cell-Death-Detection ELISA kit (Roche Diagnostics, Mannheim, Germany), according to the manufacturer's instructions. Histone-associated DNA fragments were quantified spectrophotometrically using antibodies against DNA and histones in a colorimetric assay. Enrichment in cytoplasmic nucleosomes was expressed as fold-induction of levels in untreated controls. […] At 5 μM CTM-208, apoptosis was increased more than 35-fold over the untreated control.

NF-κB [7] = test: EMSA of NF-κB DNA-binding activity in HS-Sultan cells; assay type: cell-based; settings: Homo sapiens, FIG. 6
Method: as §2
Electrophoretic Mobility Shift Assay (EMSA). For nuclear extract preparation, cells (2×10^6 cells/sample) were lysed in hypotonic lysis buffer (10 mM NaCl, 3 mM MgCl2, 10 mM Tris-HCl pH 7.8, 0.5% NP40, 1 mM DTT) and then in high-salt extraction buffer (50 mM Tris-HCl, 400 mM NaCl, 1 mM EDTA, 1 mM EGTA, 1% Triton, 0.5% NP-40, 10% glycerol, 1 mM DTT, 1 mM PMSF, 0.5 μg/ml leupeptin, 0.7 μg/ml pepstatin, 0.2% aprotinin). […] Complexes were analyzed by nondenaturing 4% polyacrylamide gel electrophoresis. […] Quantitative evaluation of NF-κB-κB complex formation was determined by Typhoon-8600 Imager (Molecular Dynamics), using ImageQuant software (MDP analysis). […]

[8] = test system: Human endothelial cells (HUVEC); test: HUVEC DNA synthesis (BrdU incorporation); assay type: cell-based; settings: 48 hours, read-out: IC50 endothelial cell proliferation (BrdU DNA synthesis)
Method: as §1
Compounds. CTM-208 was dissolved in absolute ethanol or DMSO (0.1 M stock solution), stored at −20° C., and diluted in the culture medium immediately before use. […]
DNA synthesis. […] DNA synthesis was evaluated by incorporation of 5-bromo-2-deoxy-uridine (BrdU) into cellular DNA 48 hours after the addition of the compounds. The amount of BrdU integrated into DNA was evaluated by using a monoclonal antibody against BrdU (cell proliferation ELISA colorimetric assay, Roche). Absorbance (l: 405 nm) was measured using a Victor microtiter plate reader (Wallac), and data were analyzed using the Allfit program.
Effect of CTM-208 on human endothelial cell proliferation. […] At 48 hours after the addition of the compounds, DNA synthesis was evaluated by incorporation of 5-bromo-2-deoxy-uridine (BrdU) into cellular DNA. […]

NF-κB [9] = test: EMSA of NF-κB DNA-binding activity in human keratinocytes; assay type: cell-based; settings: Keratinocyte, read-out: NF-κB
Method: Electrophoretic Mobility Shift Assay (EMSA). For nuclear extract preparation, cells (2×10^6 cells/sample) were lysed in hypotonic lysis buffer (10 mM NaCl, 3 mM MgCl2, 10 mM Tris-HCl pH 7.8, 0.5% NP40, 1 mM DTT) and then in high-salt extraction buffer (50 mM Tris-HCl, 400 mM NaCl, 1 mM EDTA, 1 mM EGTA, 1% Triton, 0.5% NP-40, 10% glycerol, 1 mM DTT, 1 mM PMSF, 0.5 μg/ml leupeptin, 0.7 μg/ml pepstatin, 0.2% aprotinin). Equal amounts of protein (6 μg/sample) were incubated with ^32P-labeled κB-DNA probe followed by analysis of DNA-binding activity by EMSA. Binding reactions were performed as described (11). Complexes were analyzed by nondenaturing 4% polyacrylamide gel electrophoresis. Specificity of protein-DNA complexes was verified by immunoreactivity with polyclonal antibodies specific for the NF-κB subunit, p65/RelA. Quantitative evaluation of NF-κB-κB complex formation was determined by Typhoon-8600 Imager (Molecular Dynamics), using ImageQuant software (MDP analysis).

HSF [10] = test: EMSA of HSF induction in human endothelial cells; assay type: cell-based
NF-κB [11] = test: EMSA of NF-κB DNA-binding activity in human endothelial cells; assay type: cell-based; settings: Endothelial cell
Method: as §1
Electrophoretic Mobility Shift Assay (EMSA). For nuclear extract preparation, cells (2×10^6 cells/sample) were lysed in hypotonic lysis buffer (10 mM NaCl, 3 mM MgCl2, 10 mM Tris-HCl pH 7.8, 0.5% NP40, 1 mM DTT) and then in high-salt extraction buffer (50 mM Tris-HCl, 400 mM NaCl, 1 mM EDTA, 1 mM EGTA, 1% Triton, 0.5% NP-40, 10% glycerol, 1 mM DTT, 1 mM PMSF, 0.5 μg/ml leupeptin, 0.7 μg/ml pepstatin, 0.2% aprotinin). Equal amounts of protein (6 μg/sample) were incubated with ^32P-labeled κB-DNA probe followed by analysis of DNA-binding activity by EMSA. Binding reactions were performed as described (11). Complexes were analyzed by nondenaturing 4% polyacrylamide gel electrophoresis. […] Quantitative evaluation of NF-κB-κB complex formation was determined by Typhoon-8600 Imager (Molecular Dynamics), using ImageQuant software (MDP analysis). […]

human endothelial cells = test: LD50 in human endothelial cells; assay type: cell-based

| SMILES | IC50 [1] | concentration for HSF induction (HSF [2]) | LD50 (human keratinocytes) | concentration able to activate HSF1 and trigger synthesis of HSP70 (HSF1) | concentration able to block NF-κB activation (NF-κB [3]) | apoptosis ([4]; 0.5 μM, 8 hour treatment) | concentration at which induction of apoptosis starts to be effective ([4]; Annexin V-PI staining, FIG. 7) | induction of apoptosis (Annexin V-positive cells) ([4]; in comparison to 15d-PGJ2, FIG. 1) | induction of apoptosis (Annexin V-positive cells) [5] | apoptosis increase over untreated control (cytoplasmic nucleosome enrichment) [6] | IC50 (NF-κB [7]) | IC50 [8] | IC50 (NF-κB [9]) | effective concentration for HSF induction (HSF [10]) | IC50 (NF-κB [11]) | LD50 (human endothelial cells) |
| --- | --- | --- | --- | --- | --- | --- | --- | --- | --- | --- | --- | --- | --- | --- | --- | --- |
| CN(Cc1cnc2nc(N)nc(N)c2n1)c1ccc(C(=O)N[C@@H](CCC(=O)O)C(=O)O)cc1 [Methotrexate, reference compound] | < 100 nM | >400 µM | >400 µM | – | – | – | – | – | – | – | – | – | – | – | – | – |
| O=C1C=CCC1 [cyclopent-2-en-1-one] | – | – | – | 125 to 500 µM | 125 to 500 µM | – | – | – | – | – | – | – | – | – | – | – |
| COC(=O)[C@H](CSC1CC(=O)/C(=C/c2ccccc2)CC1O[Si](C)(C)C(C)(C)C)NC(=O)OC(C)(C)C (stereo partly drawn) [CTM-208, (R)-2-tert-Butoxycarbonylamino-3-[4E-benzylidene-2(tert-butyl-dimethylsilanyloxy)-5-oxo-cyclohexylsulfanyl]-propionic acid methyl ester] | 2000 nM | 1.5 µM | 400 µM | – | – | approximately 90% | 0.1 µM | potent inducer of apoptosis | potent inducer of apoptosis | more than 35 fold | 200 nM | 1600 nM | 19000 nM | <1 µM | 5000 nM | >400 µM |
